Assay results from article PMC8333053, “Synthesis and biological screening of new thiadiazolopyrimidine-based polycyclic compounds” (Scientific Reports, 2021).
Converted amounts (≈) assume the structure as drawn.

Key:
Bacillus cereus UW85 = assay: Antibacterial MIC, two-fold serial dilution; assay type: cell-based; conditions: Gram +ve bacteria, LB broth, 37°C, 24 h, visual (no turbidity), read-out: MIC B. cereus
Experimental: (§1) The antimicrobial activity of the synthesized thiadiazolopyrimidine compounds was studied toward diverse pathogenic strains, such as gram-positive bacteria (Staphylococcus aureus ATCC 29213 and Bacillus cereus UW85), gram-negative bacteria (Escherichia coli ATCC 12435 and Pseudomonas aeruginosa ATCC 29260), and fungi (Candida albicans and Aspergillus fumigatus 293). The assessment was performed through the two-fold dilution technique using Ampicillin (antibacterial) and Fluconazole (antifungal) as the reference drugs[28],[29]. The minimal inhibitory concentration (MICs, µg/mL) of the synthesized derivatives for prohibiting microbial growth was determined through the visual detection (no turbidity) technique.
(§2) The synthesized thiadiazolopyrimidine-based compounds were evaluated and adopted for antibacterial and antifungal effectiveness using the approved procedure[38],[39].
(§3) Minimal inhibitory concentrations (MICs) were determined by serial dilution technique using 96-multiwell microtiter plates. The investigated compounds were dissolved in DMSO 100% to prepare stock solutions of 5000 µg/mL. Two-fold serial dilutions of the dissolved compounds were performed in LB broth providing eight different concentrations (1250, 625, 312.5, 156, 78, 39, 19.5 µg/mL). Overnight cultures of microorganisms were diluted to 1 ×10^6 CFU/mL in LB broth, and 20 mL of the diluted cultures were added to the test solutions (50 mL) in the wells (one well per concentration per bacterial strain). The plates were incubated at 37°C for 24 h. MIC was detected visually as the least concentration inhibiting bacterial growth (no turbidity) and the activity of the tested compounds was estimated in comparison to ampicillin.

[1] = test system: Pseudomonas aeruginosa ATCC 29260; assay: Antibacterial MIC, two-fold serial dilution; assay type: cell-based; conditions: ATCC29260, Gram −ve bacteria, LB broth, 37°C, 24 h, visual (no turbidity), read-out: MIC P. aeruginosa
Experimental: as §1, §2, §3

[2] = test system: Staphylococcus aureus ATCC 29213; assay: Antibacterial MIC, two-fold serial dilution; assay type: cell-based; conditions: ATCC29213, Gram +ve bacteria, LB broth, 37°C, 24 h, visual (no turbidity), read-out: MIC S. aureus
Experimental: as §1, §2, §3

[3] = test system: Escherichia coli ATCC 12435; assay: Antibacterial MIC, two-fold serial dilution; assay type: cell-based; conditions: ATCC12435, Gram −ve bacteria, LB broth, 37°C, 24 h, visual (no turbidity)
Experimental: as §1, §2, §3

Candida albicans = assay: Antifungal MIC, two-fold serial dilution; assay type: cell-based; conditions: Fungi, glucose minimal medium, 30°C, 48 h, visual (no turbidity)
Experimental: as §1, §2
(§4) Minimal inhibitory concentrations (MICs) were determined by serial dilution technique using 96-multiwell microtiter plates. The investigated compounds were dissolved in DMSO 100% to prepare stock solutions of 5000 µg/mL. Two-fold serial dilutions of the dissolved compounds were performed in glucose minimal medium providing eight different concentrations (1250, 625, 312.5, 156, 78, 39, 19.5 µg/mL). The microorganisms were diluted to 1 ×10^3 SFU/mL in glucose minimal medium, and 20 µL of the diluted culture was added to the test solutions (50 µL) in the wells (one well per concentration). The plates were incubated at 30°C for 48 h. MIC was detected visually as the least concentration inhibiting fungal growth (no turbidity) and the activity of the tested compounds was estimated in comparison to fluconazole.

[4] = test system: Aspergillus fumigatus 293; assay: Antifungal MIC, two-fold serial dilution; assay type: cell-based; conditions: Fungi, glucose minimal medium, 30°C, 48 h, visual (no turbidity)
Experimental: as §1, §2, §4

DNA = assay: Bleomycin-dependent DNA damage; assay type: biochemical; conditions: test sample 0.1 mg/mL, λ = 532 nm; mean of three replicates ± SD; ascorbic acid 0.24 mM
From the text: Bleomycin-dependent DNA damage. The prepared polycyclic thiadiazolopyrimidine-based compounds were examined through the bleomycin-dependant DNA damage, and the results were compared to that of ascorbic acid as a positive control. The obtained data reflected the ability of these derivatives to protect the DNA from damage. The capability of compounds 16a–b and 17a–b to manifest the best protective effect against DNA damage was indicated by the corresponding absorbance values ranging from 0.031 to 0.053 (Table 4)[35],[36].
Bleomycin-dependent DNA damage experiment: To a mixture of 0.5 mg / mL of DNA, 5 mM magnesium chloride, 50 mM ferric chloride and 0.05 mg / mL bleomycin sulfate was prepared. The test sample was prepared at a concentration of 0.1 mg / mL and added to the mixture. After incubation of the mixture for one hour at 37 °C, 0.05 mL of EDTA (0.1 M) was added to terminate the reaction. In the next step, 0.5 mL of TBA (1% w / v) and 0.5 mL of HCl (25% v / v) were added for colour development and the mixture was heated for 10 minutes at 80 °C. The mixture was centrifuged and the absorbance expressed, the amount of damage to the DNA was measured at λ = 532 nm. L-Ascorbic acid (0.24 mM) was used as a positive control.

[5] = test system: Chromobacterium violaceum (ATCC 12472); assay: Antiquorum-sensing assay (violacein pigment inhibition); assay type: cell-based; conditions: 5 mg/mL, 50 µL per well, 30°C, 48 h; QS inhibition = r2 − r1
From the text: The synthesized thiadiazolopyrimidine-based compounds were screened for their antiquorum-sensing (anti-QS) inhibition activity by the Chromobacterium violaceum (ATCC 12472) technique using catechin as the standard compound[28]–[30]. The QS technique of C. violaceum was remarked by the detection of violacein (violet pigment)[31],[32]. Meanwhile, the reactivity of the synthesized thiadiazolopyrimidine-containing derivatives as drugs depends on their efficiency to inhibit the liberation of violacein during the QS technique. The QS inhibition was determined by the following equation: QS inhibition (mm) = (r2 − r1), where r1 is the inhibition radius of the bacterial growth and r2 is the inhibition radius for growth as well as the release of the pigment.
The anti-QS inefficiency was evaluated using the previous technique mentioned in the literature.
The culture was prepared by growing Ch. violaceum ATCC 12472 in LB broth and incubated for 16–18 h in an orbital incubator running at 28°C and 150 rpm. The culture was then adjusted to 0.5 McFarland standard (ca. 1 × 10^6 CFU/mL). Ch. violaceum (50 µL) was inoculated into LB agar (50 mL), poured into plates, and solidified. Wells were made in LB agar medium using cork borer. The tested compounds were dissolved in DMSO 100% in Eppendorf tubes for final concentration of 5 mg/mL, and 50 µL of the test solution was applied into the wells. The positive control (catechin) was also added at the same concentration and volume to each plate. In addition, DMSO (control solvent) was added to each plate. […] Bacterial growth inhibition by the tested compounds was measured as radius (r1) in mm, while both growth and pigment inhibition was measured as radius (r2) in mm. The pigment inhibition (QS inhibition) was determined by subtracting bacterial growth inhibition (r1) from the total radius (r2); thus, QS inhibition = (r2 - r1) in mm.

[6] = MTT cytotoxicity assay on normal cells; assay type: cell-based; conditions: human, WI38 normal fibroblast cells
Experimental: (§5) The cytotoxicity of the prepared tri-and tetra-cyclic thiadiazolopyrimidine compounds were examined toward various cancer cell lines, such as liver and breast cancer (MCF-7), prostate cancer (PC3), laryngeal carcinoma (Hep-2), carcinoma (HepG2), and standard normal fibroblast cells (WI38) using the MTT assay[33] at the National Research Centre (Egypt). The cytotoxicity (Table 3) toward 50% inhibition of the cell viability (IC50 values) was assessed using 5-fluorouracil (5-Fu) as the standard anticancer drug.
(§6) The synthesized compounds were subjected to the MTT cytotoxicity assay on the basis of the cited literature.
(§7) MTT cytotoxicity assay: The technical method of MTT assay depends on the reduction of yellow 3-(4,5-methyl-2-thiazolyl)-2,5-diphenyl-2H-tetrazolium bromide (MTT) into purple formazan product, mainly by mitochondrial reductase activity inside the living cells. The cells used in cytotoxicity assay were cultured in RPMI 1640 medium supplemented with 10% fetal calf serum. Cells suspended in the medium (2×10^4 cells/mL) were plated in 96-well culture plates and incubated at 37 °C in a 5% CO2 incubator for 12 hours. The tested sample (2 μL) was added to the cells (2×10^4) in 96-well plates and cultured at 37 °C for 3 days. The cultured cells were mixed with 20 μL of MTT solution and incubated for 4 hours at 37 °C. The supernatant was carefully removed from each well, the formazan crystals were dissolved after addition of DMSO (100 μL) for each well to form the cellular reduction of MTT. After mixing with a mechanical plate mixer, the absorbance of each well was measured by a microplate reader using a test wavelength of 570 nm. The results were expressed as the IC50 values, which inducing 50% inhibition of cell growth of the treated cells when compared to the growth of control cells.

Hep-2 = assay: MTT cytotoxicity assay; assay type: cell-based; conditions: Homo sapiens, HEp-2, 72 h, 3 days
Experimental: as §5, §6, §7

HepG2 = assay: MTT cytotoxicity assay; assay type: cell-based; conditions: Homo sapiens, HepG2, 72 h, 3 days
Experimental: as §5, §6, §7

MCF-7 = assay: MTT cytotoxicity assay; assay type: cell-based; conditions: Homo sapiens, MCF7, 72 h, 3 days
Experimental: as §5, §6, §7

PC3 = assay: MTT cytotoxicity assay; assay type: cell-based; conditions: Homo sapiens, PC-3, 72 h, 3 days
Experimental: as §5, §6, §7

CC1(C)S[C@@H]2[C@H](NC(=O)[C@H](N)c3ccccc3)C(=O)N2[C@H]1C(=O)O [Ampicillin, reference compound]
MIC (Bacillus cereus UW85): 1250 µg/mL (≈ 3.58 mM) | MIC [1]: 78 µg/mL (≈ 0.223 mM) | MIC [2]: > 1250 µg/mL | MIC [3]: 19.5 µg/mL (≈ 0.0558 mM)

OC(Cn1cncn1)(Cn1cncn1)c1ccc(F)cc1F [Fluconazole, reference compound]
MIC (Candida albicans): > 1250 µg/mL | MIC [4]: > 1250 µg/mL

O=C1O[C@H]([C@@H](O)CO)C(O)=C1O [Ascorbic acid, L-Ascorbic acid, reference compound]
Absorbance (bleomycin-dependent DNA damage) (DNA): 0.060 ± 0.02

O.Oc1cc(O)c2c(c1)O[C@H](c1ccc(O)c(O)c1)[C@@H](O)C2 [Catechin, catechin, reference compound]
Diameter of quorum-sensing inhibition C. violaceum [5]: 2 mm

O=c1[nH]cc(F)c(=O)[nH]1 [Compound 5-Fu, 5-Fluorouracil, reference compound]
IC50 at 3 days [6]: 10.3 ± 0.62 µM | IC50 (Hep-2): 5.35 ± 0.23 µM | IC50 (HepG2): 7.2 ± 0.45 µM | IC50 (MCF-7): 5.58 ± 0.31 µM | IC50 (PC3): 8.78 ± 0.6 µM
